Series [1] has as its target T1, recombinant Lotus pantothenate synthetase (Lotus japonicus, UniProt O24035). Briefly: Activity of recombinant Lotus pantothenate synthetase in the presence of potential effectors. The format is biochemical. The arrangement: the processed recombinant protein (3-proline through 308-leucine) has a theoretical mass of 34,037.7 Da; made in house; host or cells: E. coli AT1371 (panC) transformed with pSKL. Particulars: for Final activity [%]: effector 1 mM, pantoate 0.1 mM, β-alanine 1.0 mM, % of activity without effector. Here is the method:
2. The preferred assay mixture to measure the pyrophosphate liberated in the PS reaction after its conversion with inorganic pyrophosphatase to inorganic phosphate comprises 100 μmol Tris.HCl (pH 8.0), 10 μmol MgSO4, 5 μmol ATP, 10 μmol […], […], 1.0 unit […] After a suitable incubation period the PS reaction is terminated either
(§1) a) by the addition of 100 μlof a reagent mixture comprising 62.3 µg malachite green hydrochloride, 1.9 mg ammoniumheptamolybdate and 0.5% (v/v) of a suitable detergent (for example Triton X-100, Tween-80 or Tergitol NPX) in 1.88 N hydrochloric acid. The resulting colour complex is stabilised by the addition after 1 minute of 50 μl of a 26% (w/v) solution of trisodium citrate dihydrate in water and after an additional 45 minutes incubation at room temperature the intensity of the colour complex is determined by measuring the extinction at 620 nm. The amount of inorganic phosphate liberated in the PS reaction is determined by reference to a standard curve generated from suitable amounts of inorganic phosphate by using the difference of extinction at 620 nm between a complete PS assay mixture and a PS assay mixture lacking pantoate. Since there are 2 molecules of inorganic phosphate liberated for every molecule of pyrophosphate formed in the PS reaction, one unit of PS activity is defined as the amount of enzyme producing 2 nmoles of inorganic phosphate per minute, and specific activity is expressed as units per milligram of protein; or
Among these compounds are the intermediates of pantothenate biosynthesis as well as coenzyme A. As coenzyme A plays a prominent role in fatty acid synthesis and degradation, various acyl forms of coenzyme A and free fatty acids were also included. […] Table 7 lists the compounds tried and their effect on PS activity which is expressed percentage of activity in an assay without additions.

The target in series [2] is T2, recombinant L. japonicus pantothenate synthetase (Lotus japonicus, UniProt O24035).
T2 construct: the processed recombinant protein (3-proline through 308-leucine) has a theoretical mass of 34,037.7 Da; made in house; host or cells: E. coli AT1371 (panC) transformed with pSKL
T2 sequence (O24035 3-308): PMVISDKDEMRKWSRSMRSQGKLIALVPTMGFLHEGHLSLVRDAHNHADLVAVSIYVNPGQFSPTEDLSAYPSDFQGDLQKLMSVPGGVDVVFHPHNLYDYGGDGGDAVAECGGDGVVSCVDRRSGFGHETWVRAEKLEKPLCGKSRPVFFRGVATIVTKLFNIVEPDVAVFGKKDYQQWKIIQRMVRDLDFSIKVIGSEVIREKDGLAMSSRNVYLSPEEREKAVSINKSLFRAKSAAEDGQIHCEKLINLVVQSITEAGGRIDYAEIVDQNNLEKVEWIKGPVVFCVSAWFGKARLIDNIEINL
Briefly: Substrate specificity of recombinant L. japonicus pantothenate synthetase. The format is biochemical. Particulars: for yield (%): relative to standard assay; for inhibition: analogue at 10-fold excess over pantoate. As for the experimental part: (§2) 2. The preferred assay mixture to measure the pyrophosphate liberated in the PS reaction after its conversion with inorganic pyrophosphatase to inorganic phosphate comprises 100 μmol Tris.HCl (pH 8.0), 10 μmol MgSO4, 5 μmol ATP, 10 μmol […], 0.5 μmol pantoate, 1.0 unit yeast inorganic pyrophosphatase and pantothenate synthetase in a total volume of 100 μl. After a suitable incubation period the PS reaction is terminated either
as §1, with “protein; or […]” for “protein; or”

Series [3] addresses T1, recombinant Lotus pantothenate synthetase. As to the kind of experiment: Steady state kinetics of recombinant Lotus pantothenate synthetase. Here is the method: as §2, §1
Km and Vmax constants for pantoate and […] were determined by measuring the effect of substrate concentration on the reaction rate.

For a further series, the target named is purified E. coli PS (Escherichia coli, UniProt P31663). To be noted: cited from earlier work.
Chain of purified E. coli PS (P31663 whole entry): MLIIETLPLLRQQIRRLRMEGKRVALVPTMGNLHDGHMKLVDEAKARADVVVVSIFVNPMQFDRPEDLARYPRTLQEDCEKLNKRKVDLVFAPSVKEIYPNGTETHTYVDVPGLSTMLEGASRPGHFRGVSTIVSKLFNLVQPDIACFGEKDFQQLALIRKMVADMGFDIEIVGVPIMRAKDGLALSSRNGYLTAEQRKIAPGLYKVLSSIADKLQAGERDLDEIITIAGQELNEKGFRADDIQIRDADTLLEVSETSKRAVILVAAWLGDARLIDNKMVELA
Substrate in series [4]: NCCC(=O)O
Briefly: purified protein, by the assay type. Particulars: pantoate at 0.5 mM const., pH 8.0.

Substrate in series [5]: CC(C)(CO)[C@@H](O)C(=O)O
Briefly: purified protein, by the assay type. To be noted: pH 8.0.

The mark [6] stands for this setting: analogue 1.0 mM added to pantoate 0.1 mM and β-alanine 1 mM.
[7] abbreviates: analogue 1.0 mM in place of pantoate, β-alanine 1 mM.
[8] abbreviates: analogue 10 mM in place of pantoate, β-alanine 1 mM.
The mark [9] stands for this setting: other: Eadie-Hofstee (EH), β-alanine at 20 mM const.
The mark [10] stands for this setting: other: Lineweaver-Burk (LB), β-alanine at 20 mM const.
Setting [11] is: other: fit of rate equation for uncompetitive substrate inhibition.

Some results are limits rather than exact numbers.

For the molecule `CC(=O)SCCNC(=O)CCNC(=O)[C@H](O)C(C)(C)COP(=O)(O)OP(=O)(O)OC[C@H]1O[C@@H](n2cnc3c(N)ncnc32)[C@H](O)[C@@H]1OP(=O)(O)O` [Acetyl-coA], the activity at 100 µM in series [1] (read-out: Final activity [%]) was 93%.
In the case of `CC(C)(COP(=O)(O)OP(=O)(O)OC[C@H]1O[C@@H](n2cnc3c(N)ncnc32)[C@H](O)[C@@H]1OP(=O)(O)O)[C@@H](O)C(=O)NCCC(=O)NCCS` [CoenzymeA], in series [1] (read-out: Final activity [%]), the activity at 100 µM is 100%, the activity at 200 µM amounted to 106% and the activity at 1000 µM was determined as 109%.
For the molecule `CC(C)(CO)C(=O)C(=O)O` [Ketopantoate, ketopantoate], in series [1], the “Final activity [%]” value is 97%. Also, in series [2], the “activity as substrate in the place of pantoate” value is “not active as substrates” and the inhibition entry was “did not effect significant inhibition”. Further, in series [2] (setting [6]), the “activity (units)” value was 12.18 units and the “yield (%)” value is 97%. Also, in series [2] (setting [7]), the “activity (units)” value is listed as 0 units and the “yield (%)” value was 0%. In series [2] (setting [8]), the “activity (units)” value is recorded as 0 units and the “yield (%)” value is 0%.
Regarding `CC(C)(COP(=O)(O)OP(=O)(O)OC[C@H]1O[C@@H](n2cnc3c(N)ncnc32)[C@H](O)[C@@H]1OP(=O)(O)O)[C@@H](O)C(=O)NCCC(=O)NCCSC(=O)CC(=O)O` [Malonyl-coA], the activity at 100 µM in series [1] (read-out: Final activity [%]) was 92%.
Consider `CCCCCCCC/C=C\CCCCCCCC(=O)SCCNC(=O)CCNC(=O)[C@H](O)C(C)(C)COP(=O)(O)OP(=O)(O)OC[C@H]1O[C@@H](n2cnc3c(N)ncnc32)[C@H](O)[C@@H]1OP(=O)(O)O` [Oleoyl-coA], for which the activity at 24 µM in series [1] (read-out: Final activity [%]) is 108%.
As to `CCCCCCCCCCCCCCCC(=O)O` [Palmitic acid], in series [1] (read-out: Final activity [%]), the activity at 2 µM worked out at 133%, the activity at 15 µM was determined as 135% and the activity at 60 µM was 115%.
Take `CCCCCC/C=C\CCCCCCCC(=O)O` [Palmitoleic acid]: in series [1] (read-out: Final activity [%]), the activity at 20 µM came to 116% and the activity at 100 µM was determined as 100%.
Take `CCCCCC/C=C\CCCCCCCC(=O)SCCNC(=O)CCNC(=O)[C@H](O)C(C)(C)COP(=O)(O)OP(=O)(O)OC[C@H]1O[C@@H](n2cnc3c(N)ncnc32)[C@H](O)[C@@H]1OP(=O)(O)O` [Palmitoleoyl-coA]: in series [1] (read-out: Final activity [%]), the activity at 22 µM came out at 114%.
Consider `CC(C)(CO)[C@@H](O)C(=O)O` [Pantoate, (R)-pantoate], for which the optimal pantoate concentration in series [3] (calculated from rate equation with fitted KS and K′S) is 470 ± 30 µM. For the same molecule, in series [3] (fit of rate equation for uncompetitive substrate inhibition), the “K′S” value was 5.33 ± 0.34 mM. For the same molecule, the catalytic constant (kcat) in series [3] (from Vmax of the uncompetitive substrate inhibition fit) is 0.625 ± 0.011 s⁻¹. Further, in series [3] (substrate inhibition of Lotus PS), the “pantoate concentration at which substrate inhibition becomes significant” value was no less than 400 µM.
Regarding `CC(C)(CO)[C@@H](O)C(=O)NCCC(=O)O` [Pantothenate], the activity at 1000 µM in series [1] (read-out: Final activity [%]) is 98%.
For `CC1(C)COC(=O)[C@@H]1O` [Pantoyl-lactone, pantoyl-lactone], the “Final activity [%]” value in series [1] came to 92%. The activity toward pantoyl-lactone entry at purified E. coli PS is given as “no activity”. In series [2], the “activity as substrate in the place of pantoate” value is “not active as substrates” and the inhibition entry is “did not effect significant inhibition”. In series [2] (setting [6]), the “activity (units)” value is 11.53 units and the “yield (%)” value was 92%. Also, in series [2] (setting [7]), the “activity (units)” value is recorded as less than 0.1 units and the “yield (%)” value is less than 1%. In series [2] (setting [8]), the “activity (units)” value is reported as 0.15 units and the “yield (%)” value amounted to 1%.
As to `O=P(O)(O)OP(=O)(O)O` [Pyrophosphate], the “Final activity [%]” value in series [1] is 78%.
In the case of `CC(C)C(=O)C(=O)O` [a-KIVA], the “Final activity [%]” value in series [1] is recorded as 89%.

B1: recombinant Lotus pantothenate synthetase (Lotus japonicus) (protein)
chain: PMVISDKDEMRKWSRSMRSQGKLIALVPTMGFLHEGHLSLVRDAHNHADLVAVSIYVNPGQFSPTEDLSAYPSDFQGDLQKLMSVPGGVDVVFHPHNLYDYGGDGGDAVAECGGDGVVSCVDRRSGFGHETWVRAEKLEKPLCGKSRPVFFRGVATIVTKLFNIVEPDVAVFGKKDYQQWKIIQRMVRDLDFSIKVIGSEVIREKDGLAMSSRNVYLSPEEREKAVSINKSLFRAKSAAEDGQIHCEKLINLVVQSITEAGGRIDYAEIVDQNNLEKVEWIKGPVVFCVSAWFGKARLIDNIEINL
Turning to B1, the Km in series [4] (other: Eadie-Hofstee (EH)) is 986 (EH) μM; in series [4] (other: Lineweaver-Burk (LB)), 990 (LB) μM; in series [5] (setting [9]), 44 (EH) μM; in series [5] (setting [10]), 45 (LB) μM; in series [5] (setting [11]), 42 ± 2 µM. Besides, the Vmax was 9.51 (EH) in series [4] (other: Eadie-Hofstee (EH)); 9.52 (LB) in series [4] (other: Lineweaver-Burk (LB)); 10.98 (EH) in series [5] (setting [9]); 11.36 (LB) in series [5] (setting [10]); 11.03±0.19 units in series [5] (setting [11]). Besides, the figures for the kcat in series [4] (other: Lineweaver-Burk (LB)) and in series [5] (setting [10]) were 0.54 s⁻¹ and 0.63 s⁻¹, respectively.

Source of the values: patent publication US6630331B1, “Herbicides test method” (Hoechst Schering AgrEvo GmbH, priority 1997, dated 2003).
